Values of other authors, collected in PMC10552101 (ACS Omega, 2023).

## CNC1CC(c2ccc(Cl)c(Cl)c2)c2ccccc21 (stereo not shown) [LU-19-005, indatraline]
  onset: slow onset
